Data on 1 molecule can be found in patent publication US20210204580A1, “ORGANIC COMPOUNDS” (Givaudan SA, priority 2018, published 2021).

Test [1] is described as follows: off-note masking in consumables containing non-animal derived protein (general statements).
Test [2] can be described thus: Potato protein solution taste description. The following applies: 3 wt % potato protein solution + 14 ppt ethyl cyclohexanoate; Sample A without it: earthy, musty, fishy, bitter. Here is the method: An aqueous potato protein solution comprising 3 weight % potato protein (Solanic™ 200 by Avebe) was prepared (Sample A).

As to `CCOC(=O)C1CCCCC1` [ethyl cyclohexanoate], the “effect on off-note attributes” value in test [1] (higher concentrations, 50 ppt or more) is reported as “provides a significant effect on several off-note attributes, but in addition confers some fruity notes”. In test [1] (up to 20 ppt (e.g. 0.5 ppt to about 15 ppt) added to a consumable comprising about 3 wt % non-animal derived protein), the off-note masking result was “good results”. Further, the masking of off-notes result in test [1] (use around its odor detection threshold, about 0.5 ppt (ng/L) to about 20 ppt (ng/L)) is listed as “provides the masking of certain off-notes”. In addition, in test [2], the taste description result was “earthy, potato-like, but no fishy, bitter taste attributes have been noticed”.
